Patent US20110039763A1, “TARGETED ANTIMICROBIAL MOIETIES” (C3 JIAN, INC., priority 2009, published 2011)
“Also recorded” adds a separate entry of the source. Ends that are not written are not given here.

Experiments:
[1] = test system: microorganisms; test: Peptide activities: targeting/binding, antimicrobial, growth or phenotype altering (Tables 7, 8); type: cell-based; conditions: peptides having multiple activities
[2] = test system: microorganisms; test: Morphology, biofilm and growth disrupting peptides (Table 5); type: cell-based; set-up: key: A: Peptide aggregates; B: Less hyphal formation; Clumps; Diffuse clumps and small polyps; F: Diffuse growth; H: Thin; I: Growth inhibition; Microcolony formation; Rippled; Small polyps; Thick; W: Halo formation on top, microlonies on bottom
Description: In certain embodiments peptides that induce alterations in phenotype or other biological activities can also be used as antimicrobial effector moieties.

[3] = test system: microorganisms; test: Targeting peptide binding to target microorganisms (Tables 3, 10, 12); conditions: microorganism(s) the targeting peptide binds; binding in aqueous buffers varied with peptide solubility, preferably 1x PBS

Substance | Activities [1] | Organism, effect ([2]; C. albicans) | Organism, effect ([2]; E. coli) | Organism, effect ([2]; MRSA) | Organism, effect ([2]; S. epidermidis) | Organism, effect ([2]; S. pneumoniae) | Target(s) [3] | Organism, effect ([2]; C. jeikeium) | Organism, effect ([2]; E. faecalis) | Organism, effect ([2]; B. subtilis) | Organism, effect ([2]; C. jejuni) | Organism, effect ([2]; M. luteus)
PF-528: peptide having multiple activities (LVDVVVLIRRHLPKSCS-NH2) | G B | C. albicans (C) | E. coli (H) | MRSA (H) | S. epidermidis (H) | S. pneumoniae (R) | S. epidermidis and P. aeruginosa and C. albicans and MRSA and S. pneumoniae and E. faecalis | – | – | – | – | –
PF-540: peptide having multiple activities (KSILILIKVIFIGQTTIIL; Peptide with targeting and/or antimicrobial activity) | G B | – | E. coli (R) | MRSA (H) | S. epidermidis (H) | S. pneumoniae (R) | C. albicans | – | – | – | – | –
PF-542: peptide having multiple activities (KKDNPSLNDQDKNAVLNLLALAK; Peptide with targeting and/or antimicrobial activity) | G B | – | – | – | – | S. pneumoniae (H) | C. jeikeium | – | – | – | – | –
PF-546: peptide having multiple activities (PIIAPTIKTQIQ; Peptide with targeting and/or antimicrobial activity) | G B | – | E. coli (R) | MRSA (D) | S. epidermidis (D) | S. pneumoniae (D) | S. epidermidis; also recorded: E. coli; also recorded: C. albicans; also recorded: S. pneumoniae; also recorded: E. faecalis; also recorded: C. jeikeium | C. jeikeium (D) | E. faecalis (D) | – | – | –
PF-549: peptide having multiple activities (TGIGPIARPIEHGLDS; Peptide with targeting and/or antimicrobial activity) | G B | – | – | MRSA (C) | – | – | E. coli; also recorded: C. albicans; also recorded: S. pneumoniae; also recorded: C. jeikeium | – | – | B. subtilis (D) | – | –
PF-550: peptide having multiple activities (STENGWQEFESYADVGVDPRRYVPL; Peptide with targeting and/or antimicrobial activity) | G B | – | – | – | – | – | S. pneumoniae | – | – | B. subtilis (D) | – | –
PF-551: peptide having multiple activities (QVKEKRREIELQFRDAEKKLEASVQAE; Peptide with targeting and/or antimicrobial activity) | G B | – | – | MRSA (C) | – | – | S. pneumoniae | – | – | – | – | –
PF-552: peptide having multiple activities (ELDKADAALGPAKNLAPLDVINRS; Peptide with targeting and/or antimicrobial activity) | G B | – | – | – | – | – | S. pneumoniae | – | – | B. subtilis (D) | – | –
PF-553: peptide having multiple activities (LTIVGNALQQKNQKLLLNQKKITSLG; Peptide with targeting and/or antimicrobial activity) | G B | – | – | MRSA (M) | – | S. pneumoniae (R) | S. epidermidis and E. coli and P. aeruginosa and C. albicans and MRSA and S. pneumoniae and C. jeikeium | C. jeikeium (R) | – | B. subtilis (D) | – | –
PF-554: peptide having multiple activities (AKNFLTRTAEEIGEQAVREGNINGP; Peptide with targeting and/or antimicrobial activity) | G B | – | – | – | – | – | S. pneumoniae | – | – | B. subtilis (D) | – | –
PF-557: peptide having multiple activities (AANKAREQAAAEAKRKAEEQAR; Peptide with targeting and/or antimicrobial activity) | G B | – | – | – | – | – | S. pneumoniae | – | – | B. subtilis (D) | – | –
PF-558: peptide having multiple activities (ADAPPPLIVRYS; Peptide with targeting and/or antimicrobial activity) | G B | – | – | MRSA (C) | S. epidermidis (M) | S. pneumoniae (R) | S. epidermidis; also recorded: E. coli; also recorded: C. albicans; also recorded: C. jeikeium; also recorded: C. jejuni | – | – | B. subtilis (D) | C. jejuni (H) | –
PF-559: peptide having multiple activities (SRPGKPGGVSIDVSRDRQDILSNYP; Peptide with targeting and/or antimicrobial activity) | G B | – | – | – | – | – | S. epidermidis; also recorded: M. luteus; also recorded: C. albicans; also recorded: C. jeikeium; also recorded: C. jejuni | – | – | B. subtilis (C) | C. jejuni (A) | –
PF-560: peptide having multiple activities (FGNPFRGFTLAMEADFKKRK; Peptide with targeting and/or antimicrobial activity) | G B | – | – | MRSA (C) | – | S. pneumoniae (R) | S. epidermidis; also recorded: M. luteus; also recorded: E. coli; also recorded: S. pneumoniae; also recorded: C. jeikeium; also recorded: C. jejuni | – | – | B. subtilis (D) | C. jejuni (A) | –
PF-563: peptide having multiple activities (RPELDNELDVVQNSASLDKLQASYN; Peptide with targeting and/or antimicrobial activity) | G B | – | – | – | – | S. pneumoniae (H) | S. epidermidis; also recorded: M. luteus; also recorded: C. jeikeium | – | – | B. subtilis (D) | C. jejuni (H) | –
PF-564: peptide having multiple activities (TIILNDQINSLQERLNKLNAETDRR; Peptide with targeting and/or antimicrobial activity) | G B | – | – | MRSA (C) | – | – | S. epidermidis; also recorded: C. albicans; also recorded: S. pneumoniae; also recorded: C. jeikeium | C. jeikeium (R) | – | B. subtilis (D) | C. jejuni (R) | –
PF-566: peptide having multiple activities (EAQQVTQQLGADFNAITTPTATKV; Peptide with targeting and/or antimicrobial activity) | G B | – | – | MRSA (M) | – | S. pneumoniae (D) | P. mirabilis; also recorded: S. pneumoniae | C. jeikeium (C) | – | B. subtilis (C) | C. jejuni (D) | M. luteus (D)
PF-567: peptide having multiple activities (QQRVKAVDASLSQVSTQVSGAVASA; Peptide with targeting and/or antimicrobial activity) | G B | – | – | MRSA (D) | – | S. pneumoniae (D) | S. epidermidis and P. aeruginosa and C. albicans and MRSA and S. pneumoniae and C. jeikeium | C. jeikeium (C) | – | – | C. jejuni (D) | M. luteus (C)
PF-569: peptide having multiple activities (KSKISEYTEKEFLEFVEDIYTNNK; Peptide with targeting and/or antimicrobial activity) | G B | – | – | – | – | – | M. luteus; also recorded: P. mirabilis; also recorded: S. pneumoniae; also recorded: E. faecalis; also recorded: C. jeikeium | – | – | B. subtilis (D) | – | –
PF-572: peptide having multiple activities (WRASKGLPGFKAG; Peptide with targeting and/or antimicrobial activity) | G B | – | – | – | – | S. pneumoniae (R) | S. epidermidis; also recorded: M. luteus; also recorded: E. coli; also recorded: S. pneumoniae; also recorded: C. jeikeium | – | – | B. subtilis (D) | – | –
PF-573: peptide having multiple activities (EKKLIVKLIDSIGKSHEEIVGAG; Peptide with targeting and/or antimicrobial activity) | G B | – | – | – | – | S. pneumoniae (C) | S. epidermidis; also recorded: S. pneumoniae | – | – | – | – | –
PF-576: peptide having multiple activities (AYSGELPEPLVRKMSKEQVRSVMGK; Peptide with targeting and/or antimicrobial activity) | G B | – | E. coli (A) | MRSA (R) | S. epidermidis (A) | S. pneumoniae (C) | M. luteus; also recorded: P. mirabilis; also recorded: E. coli; also recorded: P. aeruginosa; also recorded: C. albicans; also recorded: S. pneumoniae | – | – | – | C. jejuni (C) | –
